Results: US20210254272A1, “TEXTILES HAVING ANTIMICROBIAL PROPERTIES” (Livinguard AG, priority 2015, published 2021)

Tests used:
[1] = Leaching: 10 grams fabric in 100 milliliters distilled water, 7 days, GC-MS; type: physicochemical
Experimental: To test for a potential leaching of the antimicrobial agents fixed to the textile material, the following test was performed. A test fabric of polyester 65%/cotton 35% with 210 g/m2 was treated with polyhexamethylenebiguanide (PHMB) 0.5%, silver chloride 0.075%, octadecylaminomethyl trihydroxysilylpropyl ammonium chloride (organosilane) 0.4%, and propiconazole 0.5%
The treated textile material was put into distilled water at a ratio of 1:10. Specifically, a fabric of 10 grams was soaked in 100 milliliters of distilled water. The fabric was incubated in the water for 7 days at room temperature, i.e. between 21 and 25° C.
Following said incubation time, the fabric was removed from the water and the exposed water was tested for the presence of the above five active ingredients using gas chromatography-mass spectrometry (GC-MS).

[2] = Leaching test: 100 g fabric soaked in 10 liters stagnant distilled water, 3 days (72 hours); type: physicochemical; conditions: for Leaching of active ingredients: exhaust 80° C. 60 min, cured 180° C. 2 min, post wash
Experimental: (§1) The test procedure for leaching was as follows: 100 g (grams) of fabric as well as control fabrics were soaked in 10 liters of stagnant distilled water in a closed wide mouth jar. After 3 days (72 hours), the water samples were tested for leached substances as per standard analytical methods.
as §1, with “methods. A weight of 100 g fabric was chosen because in the preferred embodiment of the water filter as described further below, each filter comprises a strip of fabric with 210 g/m^2, 3 meters long and 0.16 meters wide, which corresponds to 100 g of fabric.” for “methods.”

SMILES: CCCCCCCCCCCCCCCCCC[N+](C)(C)CCC[Si](OC)(OC)OC [Organosilane, dimethyloctadecyl[3-(trimethoxysilyl)propyl] ammonium chloride]
- Extracted water Conc, ppm [1]: BDL (BDL-below detection limit Detection limit: 1 parts per million (ppm))
- Leaching of active ingredients (in ppm) ([2]; 0.2% each in mixture (o.w.f), exhaust 80° C., 60 min, curing 180° C., 2 min, unwashed): 7 ppm
- Leaching of active ingredients (in ppm) ([2]; 0.5% each in mixture (o.w.f), exhaust 80° C., 60 min, curing 180° C., 2 min, unwashed): 9 ppm
- Leaching of active ingredients (in ppm) ([2]; 1.0% each in mixture (o.w.f), exhaust 80° C., 60 min, curing 180° C., 2 min, unwashed): 17 ppm
- Leeching in ppm ([2]; Exhaust + Wash + pad + Wash, exhaust 0.1% o.w.f. each in mixture, 1 gm/liter pad): 0.1 ppm
- Leeching in ppm ([2]; Exhaust + Wash + pad + Wash, exhaust 0.1% o.w.f. each in mixture, 5 gm/liter pad): 0.2 ppm
- Leeching in ppm ([2]; Exhaust + Wash + pad + Wash, exhaust 0.1% o.w.f. each in mixture, 10 gm/liter pad): 0.4 ppm
- Leeching in ppm ([2]; Exhaust + Wash + pad + Wash, exhaust 0.25% o.w.f. each in mixture, 1 gm/liter pad): 1 ppm
- Leeching in ppm ([2]; Exhaust + Wash + pad + Wash, exhaust 0.25% o.w.f. each in mixture, 5 gm/liter pad): 2 ppm
- Leeching in ppm ([2]; Exhaust + Wash + pad + Wash, exhaust 0.25% o.w.f. each in mixture, 10 gm/liter pad): 5 ppm
- Leeching in ppm ([2]; Exhaust + Wash + pad + Wash, exhaust 0.5 (% o.w.f) each in mixture, 1 gm/liter pad): 3 ppm
- Leeching in ppm ([2]; Exhaust + Wash + pad + Wash, exhaust 0.5 (% o.w.f) each in mixture, 5 gm/liter pad): 7 ppm
- Leeching in ppm ([2]; Exhaust + Wash + pad + Wash, exhaust 0.5 (% o.w.f) each in mixture, 10 gm/liter pad): 9 ppm
- Leeching in ppm ([2]; Exhaust + Wash + pad + Wash, exhaust 1.0% o.w.f. each in mixture, 1 gm/liter pad): 9 ppm
- Leeching in ppm ([2]; Exhaust + Wash + pad + Wash, exhaust 1.0% o.w.f. each in mixture, 5 gm/liter pad): 10 ppm
- Leeching in ppm ([2]; Exhaust + Wash + pad + Wash, exhaust 1.0% o.w.f. each in mixture, 10 gm/liter pad): 15 ppm
- Leeching in ppm ([2]; Exhaust + pad + Wash, exhaust 0.1% o.w.f. each in mixture, 1 gm/liter pad): 143 ppm
- Leeching in ppm ([2]; Exhaust + pad + Wash, exhaust 0.1% o.w.f. each in mixture, 5 gm/liter pad): 238 ppm
- Leeching in ppm ([2]; Exhaust + pad + Wash, exhaust 0.1% o.w.f. each in mixture, 10 gm/liter pad): 249 ppm
- Leeching in ppm ([2]; Exhaust + pad + Wash, exhaust 0.25% o.w.f. each in mixture, 1 gm/liter pad): 265 ppm
- Leeching in ppm ([2]; Exhaust + pad + Wash, exhaust 0.25% o.w.f. each in mixture, 5 gm/liter pad): 249 ppm
- Leeching in ppm ([2]; Exhaust + pad + Wash, exhaust 0.25% o.w.f. each in mixture, 10 gm/liter pad): 523 ppm
- Leeching in ppm ([2]; Exhaust + pad + Wash, exhaust 0.5 (% o.w.f) each in mixture, 1 gm/liter pad): 432 ppm
- Leeching in ppm ([2]; Exhaust + pad + Wash, exhaust 0.5 (% o.w.f) each in mixture, 5 gm/liter pad): 587 ppm
- Leeching in ppm ([2]; Exhaust + pad + Wash, exhaust 0.5 (% o.w.f) each in mixture, 10 gm/liter pad): 637 ppm
- Leeching in ppm ([2]; Exhaust + pad + Wash, exhaust 1.0% o.w.f. each in mixture, 1 gm/liter pad): 536 ppm
- Leeching in ppm ([2]; Exhaust + pad + Wash, exhaust 1.0% o.w.f. each in mixture, 5 gm/liter pad): 657 ppm
- Leeching in ppm ([2]; Exhaust + pad + Wash, exhaust 1.0% o.w.f. each in mixture, 10 gm/liter pad): 856 ppm
- Leeching in ppm ([2]; Exhaust + pad, exhaust 0.1% o.w.f. each in mixture, 1 gm/liter pad): 198 ppm
- Leeching in ppm ([2]; Exhaust + pad, exhaust 0.1% o.w.f. each in mixture, 5 gm/liter pad): 275 ppm
- Leeching in ppm ([2]; Exhaust + pad, exhaust 0.1% o.w.f. each in mixture, 10 gm/liter pad): 374 ppm
- Leeching in ppm ([2]; Exhaust + pad, exhaust 0.25% o.w.f. each in mixture, 1 gm/liter pad): 315 ppm
- Leeching in ppm ([2]; Exhaust + pad, exhaust 0.25% o.w.f. each in mixture, 5 gm/liter pad): 353 ppm
- Leeching in ppm ([2]; Exhaust + pad, exhaust 0.25% o.w.f. each in mixture, 10 gm/liter pad): 356 ppm
- Leeching in ppm ([2]; Exhaust + pad, exhaust 0.5 (% o.w.f) each in mixture, 1 gm/liter pad): 347 ppm
- Leeching in ppm ([2]; Exhaust + pad, exhaust 0.5 (% o.w.f) each in mixture, 5 gm/liter pad): 462 ppm
- Leeching in ppm ([2]; Exhaust + pad, exhaust 0.5 (% o.w.f) each in mixture, 10 gm/liter pad): 823 ppm
- Leeching in ppm ([2]; Exhaust + pad, exhaust 1.0% o.w.f. each in mixture, 1 gm/liter pad): 584 ppm
- Leeching in ppm ([2]; Exhaust + pad, exhaust 1.0% o.w.f. each in mixture, 5 gm/liter pad): 782 ppm
- Leeching in ppm ([2]; Exhaust + pad, exhaust 1.0% o.w.f. each in mixture, 10 gm/liter pad): 1243 ppm
- Leeching in ppm ([2]; Exhaust +Wash + pad, exhaust 0.1% o.w.f. each in mixture, 1 gm/liter pad): 87 ppm
- Leeching in ppm ([2]; Exhaust +Wash + pad, exhaust 0.1% o.w.f. each in mixture, 5 gm/liter pad): 158 ppm
- Leeching in ppm ([2]; Exhaust +Wash + pad, exhaust 0.1% o.w.f. each in mixture, 10 gm/liter pad): 231 ppm
- Leeching in ppm ([2]; Exhaust +Wash + pad, exhaust 0.25% o.w.f. each in mixture, 1 gm/liter pad): 186 ppm
- Leeching in ppm ([2]; Exhaust +Wash + pad, exhaust 0.25% o.w.f. each in mixture, 5 gm/liter pad): 214 ppm
- Leeching in ppm ([2]; Exhaust +Wash + pad, exhaust 0.25% o.w.f. each in mixture, 10 gm/liter pad): 327 ppm
- Leeching in ppm ([2]; Exhaust +Wash + pad, exhaust 0.5 (% o.w.f) each in mixture, 1 gm/liter pad): 375 ppm
- Leeching in ppm ([2]; Exhaust +Wash + pad, exhaust 0.5 (% o.w.f) each in mixture, 5 gm/liter pad): 432 ppm
- Leeching in ppm ([2]; Exhaust +Wash + pad, exhaust 0.5 (% o.w.f) each in mixture, 10 gm/liter pad): 564 ppm
- Leeching in ppm ([2]; Exhaust +Wash + pad, exhaust 1.0% o.w.f. each in mixture, 1 gm/liter pad): 495 ppm
- Leeching in ppm ([2]; Exhaust +Wash + pad, exhaust 1.0% o.w.f. each in mixture, 5 gm/liter pad): 534 ppm
- Leeching in ppm ([2]; Exhaust +Wash + pad, exhaust 1.0% o.w.f. each in mixture, 10 gm/liter pad): 645 ppm
- Leaching of active ingredients (in ppm) ([2]; exhaust 60° C., solution dosage 1% o.w.f, process time 60 min): 23 ppm
- Leaching of active ingredients (in ppm) ([2]; exhaust 60° C., solution dosage 1% o.w.f, process time 90 min): 14 ppm
- Leaching of active ingredients (in ppm) ([2]; exhaust 60° C., solution dosage 1% o.w.f, process time 120 min): 14 ppm
- Leaching of active ingredients (in ppm) ([2]; exhaust 60° C., solution dosage 1% o.w.f, process time 180 min): 12 ppm
- Leaching of active ingredients (in ppm) ([2]; exhaust 60° C., solution dosage 1% o.w.f, process time 240 min): 14 ppm
- Leaching of active ingredients ([2]; mixture 0.2% o.w.f. each): 0.2 ppm
- Leaching of active ingredients ([2]; mixture 0.5% o.w.f. each): 0.3 ppm
- Leaching of active ingredients ([2]; mixture 1% o.w.f. each): 0.7 ppm
- Leaching of active ingredients (in ppm) ([2]; exhaust 80° C., 1% o.w.f, 60 min, curing 170° C., curing dwell time 0.5 min): 29 ppm
- Leaching of active ingredients (in ppm) ([2]; exhaust 80° C., 1% o.w.f, 60 min, curing 170° C., curing dwell time 1.0 min): 25 ppm
- Leaching of active ingredients (in ppm) ([2]; exhaust 80° C., 1% o.w.f, 60 min, curing 170° C., curing dwell time 1.5 min): 22 ppm
- Leaching of active ingredients (in ppm) ([2]; exhaust 80° C., 1% o.w.f, 60 min, curing 170° C., curing dwell time 2.0 min): 13 ppm
- Leaching of active ingredients (in ppm) ([2]; exhaust 80° C., 1% o.w.f, 60 min, curing 170° C., curing dwell time 2.5 min): 17 ppm
- Leaching of active ingredients (in ppm) ([2]; exhaust 80° C., 1% o.w.f, 60 min, curing 170° C., curing dwell time 3.0 min): 17 ppm
- Leaching of active ingredients (in ppm) ([2]; exhaust 80° C., 1% o.w.f, 60 min, curing 180° C., curing dwell time 0.5 min): 23 ppm
- Leaching of active ingredients (in ppm) ([2]; exhaust 80° C., 1% o.w.f, 60 min, curing 180° C., curing dwell time 1.0 min): 13 ppm
- Leaching of active ingredients (in ppm) ([2]; exhaust 80° C., 1% o.w.f, 60 min, curing 180° C., curing dwell time 1.5 min): 14 ppm
- Leaching of active ingredients (in ppm) ([2]; exhaust 80° C., 1% o.w.f, 60 min, curing 180° C., curing dwell time 2.0 min): 2 ppm
- Leaching of active ingredients (in ppm) ([2]; exhaust 80° C., 1% o.w.f, 60 min, curing 180° C., curing dwell time 2.5 min): 12 ppm
- Leaching of active ingredients (in ppm) ([2]; exhaust 80° C., 1% o.w.f, 60 min, curing 180° C., curing dwell time 3.0 min): 12 ppm
- Leaching of active ingredients (in ppm) ([2]; exhaust 80° C., 1% o.w.f, 60 min, curing dwell time at 190° C. (title): 0.5 min): 19 ppm
- Leaching of active ingredients (in ppm) ([2]; exhaust 80° C., 1% o.w.f, 60 min, curing dwell time at 190° C. (title): 1.0 min): 12 ppm
- Leaching of active ingredients (in ppm) ([2]; exhaust 80° C., 1% o.w.f, 60 min, curing dwell time at 190° C. (title): 1.5 min): 11 ppm
- Leaching of active ingredients (in ppm) ([2]; exhaust 80° C., 1% o.w.f, 60 min, curing dwell time at 190° C. (title): 2.0 min): 11 ppm
- Leaching of active ingredients (in ppm) ([2]; exhaust 80° C., 1% o.w.f, 60 min, curing dwell time at 190° C. (title): 2.5 min): 25 ppm
